For 25 compounds, Ki results are on record in patent US7446199B2, “Compositions useful as inhibitors of protein kinases” (Vertex Pharmaceuticals Incorporated, priority 2003, dated 2008).

pKi: −log10 of the molar value.

In the test the target is T1, FLT-3 (Homo sapiens, UniProt P36888).
T1 construct: 0.02% BSA and 3 nM FLT-3
T1 sequence (P36888 27-993): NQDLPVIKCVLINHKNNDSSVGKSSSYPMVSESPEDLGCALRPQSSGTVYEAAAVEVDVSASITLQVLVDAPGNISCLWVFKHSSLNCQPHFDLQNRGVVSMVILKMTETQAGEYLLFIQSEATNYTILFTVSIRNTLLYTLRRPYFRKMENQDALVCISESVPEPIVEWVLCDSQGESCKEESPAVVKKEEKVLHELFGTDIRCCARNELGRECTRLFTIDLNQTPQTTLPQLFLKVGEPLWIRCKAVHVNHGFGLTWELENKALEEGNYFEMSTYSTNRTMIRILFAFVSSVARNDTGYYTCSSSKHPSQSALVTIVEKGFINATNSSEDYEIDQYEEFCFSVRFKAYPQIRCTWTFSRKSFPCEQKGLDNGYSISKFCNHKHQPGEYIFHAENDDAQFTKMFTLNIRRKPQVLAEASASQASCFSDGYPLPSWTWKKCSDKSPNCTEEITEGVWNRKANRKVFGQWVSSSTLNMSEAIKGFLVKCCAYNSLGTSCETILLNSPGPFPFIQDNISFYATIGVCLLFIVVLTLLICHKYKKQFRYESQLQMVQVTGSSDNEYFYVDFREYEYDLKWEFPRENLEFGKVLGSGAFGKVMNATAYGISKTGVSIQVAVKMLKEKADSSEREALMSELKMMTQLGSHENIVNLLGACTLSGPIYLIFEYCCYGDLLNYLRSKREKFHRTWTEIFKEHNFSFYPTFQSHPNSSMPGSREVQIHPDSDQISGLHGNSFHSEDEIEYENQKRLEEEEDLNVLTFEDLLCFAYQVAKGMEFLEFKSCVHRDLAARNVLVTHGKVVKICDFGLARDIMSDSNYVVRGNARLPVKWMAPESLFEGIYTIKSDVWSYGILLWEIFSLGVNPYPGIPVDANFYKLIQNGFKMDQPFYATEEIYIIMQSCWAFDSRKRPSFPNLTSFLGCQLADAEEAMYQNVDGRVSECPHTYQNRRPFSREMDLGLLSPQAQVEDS
The test can be described thus: Inhibition of FLT-3, radiometric filter-binding assay. The format is biochemical. The note with it: 90 μM ATP, 0.5 mg/mL pE4Y, room temperature. The method, then:
Compounds were screened for their ability to inhibit FLT-3 activity using a radiometric filter-binding assay. This assay monitors the ^33P incorporation into a substrate poly(Glu, Tyr) 4:1 (pE4Y). Reactions were carried out in a solution containing 100 mM HEPES (pH 7.5), 10 mM MgCl2, 25 mM NaCl, 1 mM DTT, 0.01% BSA and 2.5% DMSO. Final substrate concentrations in the assay were 90 μM ATP and 0.5 mg/mL pE4Y (both from Sigma Chemicals, St Louis, Mo.). The final concentration of compounds is generally between 0.01 and 5 μM. Typically, a 12-point titration was conducted by preparing serial dilutions from 10 mM DMSO stock of test compound. Reactions were carried out at room temperature.
Two assay solutions were prepared. Solution 1 contains 100 mM HEPES (pH 7.5), 10 mM MgCl2, 25 mM NaCl, 1 mg/ml pE4Y and 180 μM ATP(containing 0.3 μCi of [γ-^33P]ATP for each reaction). Solution 2 contains 100 mM HEPES (pH 7.5), 10 mM MgCl2, 25 mM NaCl, 2 mM DTT, 0.02% BSA and 3 nM FLT-3. The assay was run on a 96 well plate by mixing 50 μL each of Solution 1 and […] of the test compounds. The reaction was initiated with Solution2. After incubation for 20 minutes at room temperature, the reaction was stopped with 50 μL of 20% TCA containing 0.4 mM of ATP. All of the reaction volume was then transferred to a filter plate and washed with 5% TCA by a Harvester9600 from TOMTEC (Hamden, Conn.). The amount of ^33P incorporation into pE4y was analyzed by a Packard TopCount Microplate Scintillation Counter (Meriden, Conn.). The data was fitted using Prism software to get an IC50 or Ki.

Take `Fc1cccnc1-c1cnc2[nH]cc(-c3oncc3-c3cccc(F)c3F)c2c1` [Compound 74, 3-[4-(2,3-Difluoro-phenyl)-isoxazol-5-yl]-5-(3-fluoro-pyridin-2-yl)-1H-pyrrolo[2,3-b]pyridine]: the pKi – broadly, the negative decadic logarithm of the Ki, by convention in mol/L – was 4.90 to 6.00.
Then `Fc1cccc(-c2cnoc2-c2c[nH]c3ncc(-c4ncccn4)cc23)c1F` [Compound 75, 3-[4-(2,3-Difluoro-phenyl)-isoxazol-5-yl]-5-pyrimidin-2-yl-1H-pyrrolo[2,3-b]pyridine], with 6.00 to 6.70.
Then `Fc1cccc(-c2cnoc2-c2c[nH]c3ncc(-c4c[nH]cn4)cc23)c1F` [Compound 76, 3-[4-(2,3-Difluoro-phenyl)-isoxazol-5-yl]-5-(3H-imidazol-4-yl)-1H-pyrrolo[2,3-b]pyridine], with over 6.70; and `Fc1cccc(-c2cnoc2-c2c[nH]c3ncc(-c4cnc5[nH]ccc5c4)cc23)c1F` [Compound 77, 3-[4-(2,3-Difluoro-phenyl)-isoxazol-5-yl]-1H,1′H-[5,5′]bi[pyrrolo[2,3-b]pyridinyl]], with over 6.70; and `COc1ccnc(-c2cnc3[nH]cc(-c4oncc4-c4cccc(F)c4F)c3c2)c1` [Compound 78, 3-[4-(2,3-Difluoro-phenyl)-isoxazol-5-yl]-5-(4-methoxy-pyridin-2-yl)-1H-pyrrolo[2,3-b]pyridine], with 6.00 to 6.70.
As for `CN(C)C(=O)c1ccc(-c2cnc3[nH]cc(-c4oncc4-c4cccc(F)c4F)c3c2)nc1` [Compound 79, 6-{3-[4-(2,3-Difluoro-phenyl)-isoxazol-5-yl]-1H-pyrrolo [2,3-b]pyridin-5-yl}-N,N-dimethyl-nicotinamide], the figure is over 6.70.
Compound `CN(C)c1ccnc(-c2cnc3[nH]cc(-c4oncc4-c4cccc(F)c4F)c3c2)c1` [Compound 80, (2-{3-[4-(2,3-Difluoro-phenyl)-isoxazol-5-yl]-1H-pyrrolo[2,3-b]pyridin-5-yl}-pyridin-4-yl)-dimethyl-amine] had a pKi of 4.90 to 6.00.
The compound `CN(C)Cc1cc(Cl)nc(-c2cnc3[nH]cc(-c4oncc4-c4cccc(F)c4F)c3c2)c1` [Compound 81, (2-Chloro-6-{3-[4-(2,3-difluoro-phenyl)-isoxazol-5-yl]-1H-pyrrolo[2,3-b]pyridin-5-yl}-pyridin-4-ylmethyl)-dimethyl-amine] showed a pKi of 6.00 to 6.70.
Then `CN(C)Cc1ccnc(-c2cnc3[nH]cc(-c4oncc4-c4cccc(F)c4F)c3c2)c1` [Compound 82, (2-{3-[4-(2,3-Difluoro-phenyl)-isoxazol-5-yl]-1H-pyrrolo[2,3-b]pyridin-5-yl}-pyridin-4-ylmethyl)-dimethyl-amine], with over 6.70; and `Nc1ccnc(-c2cnc3[nH]cc(-c4oncc4-c4cccc(F)c4F)c3c2)c1` [Compound 83, 2-{3-[4-(2,3-Difluoro-phenyl)-isoxazol-5-yl]-1H-pyrrolo [2,3-b]pyridin-5-yl}-pyridin-4-ylamine], with 4.90 to 6.00.
As for `CN(C)Cc1ccc(-c2cnc3[nH]cc(-c4oncc4-c4cccc(F)c4F)c3c2)nc1` [Compound 84, (6-{3-[4-(2,3-Difluoro-phenyl)-isoxazol-5-yl]-1H-pyrrolo[2,3-b]pyridin-5-yl}-pyridin-3-ylmethyl)-dimethyl-amine], the figure is over 6.70; as for `Fc1cccc(-c2cnoc2-c2c[nH]c3ncc(-c4cncnc4)cc23)c1F` [Compound 85, 3-[4-(2,3-Difluoro-phenyl)-isoxazol-5-yl]-5-pyrimidin-5-yl-1H-pyrrolo[2,3-b]pyridine], 6.00 to 6.70.
For `Nc1cccc(-c2cnc3[nH]cc(-c4oncc4-c4cccc(F)c4F)c3c2)c1` [Compound 86, 3-{3-[4-(2,3-Difluoro-phenyl)-isoxazol-5-yl]-1H-pyrrolo [2,3-b]pyridin-5-yl}-phenylamine], the pKi is over 6.70.
As for `Oc1cccc(-c2cnc3[nH]cc(-c4oncc4-c4cccc(F)c4F)c3c2)c1` [Compound 87, 3-{3-[4-(2,3-Difluoro-phenyl)-isoxazol-5-yl]-1H-pyrrolo [2,3-b]pyridin-5-yl}-phenol], the figure is over 6.70.
Compound `Nc1ccc(-c2cnc3[nH]cc(-c4oncc4-c4cccc(F)c4F)c3c2)cc1` [Compound 90, 4-{3-[4-(2,3-Difluoro-phenyl)-isoxazol-5-yl]-1H-pyrrolo [2,3-b]pyridin-5-yl}-phenylamine] showed a pKi of over 6.70.
The compound `CN(C)Cc1ccc(-c2cnc3[nH]cc(-c4oncc4-c4cccc(F)c4F)c3c2)cc1` [Compound 91, (4-{3-[4-(2,3-Difluoro-phenyl)-isoxazol-5-yl]-1H-pyrrolo[2,3-b]pyridin-5-yl}-benzyl)-dimethyl-amine] showed a pKi of over 6.70.
Then `Fc1cccc(-c2cnoc2-c2c[nH]c3ncc(-c4ccc(CN5CCOCC5)cc4)cc23)c1F` [Compound 92, 3-[4-(2,3-Difluoro-phenyl)-isoxazol-5-yl]-5-(4-morpholin-4-ylmethyl-phenyl)-1H-pyrrolo[2,3-b]pyridine], with over 6.70; and `Fc1cccc(-c2cnoc2-c2c[nH]c3ncc(-c4ccc(CN5CCCC5)cc4)cc23)c1F` [Compound 93, 3-[4-(2,3-Difluoro-phenyl)-isoxazol-5-yl]-5-(4-pyrrolidin-1-ylmethyl-phenyl)-1H-pyrrolo[2,3-b]pyridine], with over 6.70.
Then `CN1CCN(Cc2ccc(-c3cnc4[nH]cc(-c5oncc5-c5cccc(F)c5F)c4c3)cc2)CC1` [Compound 94, 3-[4-(2,3-Difluoro-phenyl)-isoxazol-5-yl]-5-[4-(4-methyl-piperazin-1-ylmethyl)-phenyl]-1H-pyrrolo[2,3-b]pyridine], with over 6.70; and `CC(=O)Nc1ccc(-c2cnc3[nH]cc(-c4oncc4-c4cccc(F)c4F)c3c2)cc1` [Compound 95, N-(4-{3-[4-(2,3-Difluoro-phenyl)-isoxazol-5-yl]-1H-pyrrolo[2,3-b]pyridin-5-yl}-phenyl)-acetamide], with over 6.70.
Then `COc1cncc(-c2cnc3[nH]cc(-c4oncc4-c4cccc(F)c4F)c3c2)c1` [Compound 96, 3-[4-(2,3-Difluoro-phenyl)-isoxazol-5-yl]-5-(5-methoxy-pyridin-3-yl)-1H-pyrrolo[2,3-b]pyridine], with 6.00 to 6.70; and `CS(=O)(=O)Nc1ccc(-c2cnc3[nH]cc(-c4oncc4-c4cccc(F)c4F)c3c2)cc1` [Compound 98, N-(4-{3-[4-(2,3-Difluoro-phenyl)-isoxazol-5-yl]-1H-pyrrolo[2,3-b]pyridin-5-yl}-phenyl)-methane sulfonamide], with over 6.70.
On to `Clc1cccc(-c2cnoc2-c2c[nH]c3ncc(-c4cccnc4)cc23)c1Cl` [Compound 99, 3-[4-(2,3-Dichloro-phenyl)-isoxazol-5-yl]-5-pyridin-3-yl-1H-pyrrolo[2,3-b]pyridine], for which the pKi was over 6.70.
Then `CNc1ccc2c(-c3oncc3-c3cccc(F)c3F)c[nH]c2n1` [Compound 102, {3-[4-(2,3-Difluoro-phenyl)-isoxazol-5-yl]-1H-pyrrolo[2,3-b]pyridin-6-yl}-methyl-amine], with 4.90 to 6.00.
Then `COC(=O)c1cnc2[nH]cc(-c3oncc3-c3cccc(F)c3F)c2c1` [Compound 105, 3-[4-(2,3-Difluoro-phenyl)-isoxazol-5-yl]-1H-pyrrolo[2,3-b]pyridine-5-carboxylic acid methyl ester], with over 6.70.
